According to the supplement of paper PMC11061612:

Tests used:
[1] = system: TE-1 (Esophageal Squamous Cell Carcinoma); test: Bliss excess, mean over the matrix (fraction); higher = more synergy
Outline: (§1)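 Cell lines in DMEM/F12 or RPMI with 10% FBS were plated in 1536-well plates, held 24 hours at 37°C, 5% CO2, then given two-drug dose matrices for 72 hours (DMSO typically 0.2%). Viability was read by CellTiter-Glo 2.0 luminescence and scaled as inhibition from 0 (vehicle wells) to 1 (blank wells). Combination Emax is the second-highest inhibition in the matrix; Bliss excess is observed combination effect minus expected EA + EB − EA·EB, EA and EB being single-agent effects.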

[2] = system: HSC-4 (Oral Cavity Carcinoma); test: as above
Outline: as §1

[3] = system: PANC-04-03 (Pancreatic Carcinoma); test: as above
Outline: as §1

[4] = system: KYSE-450 (Esophageal Squamous Cell Carcinoma); test: as above
Outline: as §1

YH-13 (Glioblastoma) = test: as above
Outline: as §1

[5] = system: OSC-20 (Oral Cavity Carcinoma); test: as above
Outline: as §1

TGW (Neuroblastoma) = test: as above
Outline: as §1

[6] = system: LU-65 (Non-Small Cell Lung Carcinoma); test: as above
Outline: as §1

ACHN (Kidney Carcinoma) = test: as above
Outline: as §1

TK10 (Kidney Carcinoma) = test: as above
Outline: as §1

[7] = system: NCI-H358 (Lung Adenocarcinoma); test: as above
Outline: as §1

[8] = system: KARPAS-299 (T-Cell Non-Hodgkin's Lymphoma); test: as above
Outline: as §1

[9] = system: NUGC-3 (Gastric Carcinoma); test: as above
Outline: as §1

[10] = system: HOP-62 (Lung Adenocarcinoma); test: as above
Outline: as §1

[11] = system: Hs-766T (Pancreatic Carcinoma); test: as above
Outline: as §1

[12] = system: OE19 (Esophageal Adenocarcinoma); test: as above
Outline: as §1

[13] = system: Ca9-22 (Head and Neck Carcinoma); test: as above
Outline: as §1

[14] = system: Caov-4 (Ovarian Carcinoma); test: as above
Outline: as §1

[15] = system: NEC8 (Other Solid Carcinomas); test: as above
Outline: as §1

D-263MG (Glioblastoma) = test: combination Emax (second highest fraction inhibited in the dose matrix, 72 h); higher = more inhibition; extreme values may be limits of the assay
Outline: as §1
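For Bliss excess, mean over the matrix in this document: after 72 h of two-drug dosing.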

SMILES | Bliss excess [1] | Bliss excess [2] | Bliss excess [3] | Bliss excess [4] | Bliss excess (YH-13 (Glioblastoma)) | Bliss excess [5] | Bliss excess (TGW (Neuroblastoma)) | Bliss excess [6] | Bliss excess (ACHN (Kidney Carcinoma)) | Bliss excess (TK10 (Kidney Carcinoma)) | Bliss excess [7] | Bliss excess [8] | Bliss excess [9] | Bliss excess [10] | Bliss excess [11] | Bliss excess [12] | Bliss excess [13] | Bliss excess [14] | Bliss excess [15] | combination Emax (D-263MG (Glioblastoma))
CCN(CCO)CCCOc1ccc2c(Nc3cc(CC(=O)Nc4cccc(F)c4)[nH]n3)ncnc2c1 [AZD2811] + O=C(c1cc(Cc2n[nH]c(=O)c3ccccc23)ccc1F)N1CCN(C(=O)C2CC2)CC1 [Olaparib] (first compound max 1 µM, 7x7, partner max 10 µM) | -0.031 | -0.0347 | -0.0177 | -0.0135 | 0.0304 | -0.0196 | -0.0236 | 0.0014 | 0.0023 | -0.0391 | -0.063 | 0.0298 | 0.0181 | -0.0376 | -0.0415 | 0.0454 | 0.0109 | 0.0034 | 0.0116 | 0.418
COc1cccc2c1C(=O)c1c(O)c3c(c(O)c1C2=O)C[C@@](O)(C(=O)CO)C[C@@H]3O[C@H]1C[C@H](N)[C@H](O)[C@H](C)O1 [Doxorubicin] + Cc1cc2ncnn2cc1Nc1ncc2c(n1)n(C1CCOCC1)c(=O)n2C [AZD7648] (first compound max 1 µM, 7x7, partner max 10 µM) | -0.022 | 0.0047 | -0.0394 | 0.0487 | 0.0443 | 0.0204 | 0.0041 | 0.0418 | 0.068 | 0.0138 | 0.0186 | 0.1 | 0.0285 | 0.0399 | -0.012 | 0.0189 | 0.0703 | 0.056 | 0.0952 | 0.789
NC1(C(=O)N[C@@H](CCO)c2ccc(Cl)cc2)CCN(c2ncnc3[nH]ccc23)CC1 [Capivasertib] + COc1nnc2ccc(N3CCC(c4ccc(OCCN5CCN(C)C(=O)[C@H]5C)cc4)CC3)nn12 [AZD5153] (first compound max 10 µM, 7x7, partner max 1 µM) | -0.0169 | 0.0211 | -0.0242 | -0.0508 | 0.0553 | 0.0093 | -0.0364 | -0.152 | -0.0094 | -0.0154 | -0.0514 | -0.0453 | 0.0564 | -0.0633 | 0.0126 | 0.0561 | -0.0073 | -0.0146 | 0.0363 | 0.562
NC1(C(=O)N[C@@H](CCO)c2ccc(Cl)cc2)CCN(c2ncnc3[nH]ccc23)CC1 [Capivasertib] + Cn1cnc2c(F)c(Nc3ccc(Br)cc3Cl)c(C(=O)NOCCO)cc21 [Selumetinib] (first compound max 10 µM, 7x7, partner max 10 µM) | 0.0059 | -0.0133 | 0.0247 | 0.0292 | 0.0235 | 0.0384 | -0.104 | -0.0119 | 0.0379 | 0.0043 | -0.0396 | 0.117 | -0.0007 | -0.0367 | -0.0045 | 0.0786 | -0.0383 | -0.0293 | 0.0013 | 0.518
CC(=O)c1c(C)c2cnc(Nc3ccc(N4CCNCC4)cn3)nc2n(C2CCCC2)c1=O [Palbociclib] + CC1(C)CCC(CN2CCN(c3ccc(C(=O)NS(=O)(=O)c4ccc(NCC5CCOCC5)c([N+](=O)[O-])c4)c(Oc4cnc5[nH]ccc5c4)c3)CC2)=C(c2ccc(Cl)cc2)C1 [Venetoclax] (first compound max 10 µM, 7x7, partner max 1 µM) | -0.0385 | -0.0523 | -0.0528 | -0.0407 | 0.0451 | -0.0545 | -0.014 | -0.0781 | 0.0329 | -0.0312 | -0.0862 | -0.0496 | -0.0178 | -0.0132 | -0.0544 | -0.0449 | -0.0044 | -0.057 | -0.0265 | 0.222
COc1cccc(OCCCN)c1-c1cc(Nc2cnc(C#N)cn2)n[nH]1 [Prexasertib] + CN(C)CCCOc1ccc(-c2ccc3ncc4c(c3c2)n(C2CCOCC2)c(=O)n4C)cn1 [AZD0156] (first compound max 1 µM, 7x7, partner max 1 µM) | -0.0356 | -0.0079 | -0.0328 | -0.0713 | -0.0203 | -0.0111 | -0.0253 | -0.023 | -0.0318 | -0.0239 | -0.034 | 0.0074 | 0.0083 | -0.0042 | -0.0062 | 0.0198 | -0.0123 | 0.0056 | -0.009 | 0.915
